Assay results: patent publication US20090221642A1, “MUSCARINIC RECEPTOR AGONISTS, COMPOSITIONS, METHODS OF TREATMENT THEREOF, AND PROCESSES FOR PREPARATION THEREOF-176” (AstraZeneca AB, priority 2008, published 2009)
pEC50: −log10 of the molar value.

biological target: T1, cloned human M4 receptor (human Muscarinic receptor subtype 4) (Homo sapiens, UniProt P08173); test: hM4 receptor GTPγS binding; assay type: biochemical; details: CHO cell membranes expressing hM4; [35S]GTPγS binding; read-out: hM4 EC50
T1 construct: purchased Perkin-Elmer RBHM4M; host or cells: Chinese hamster ovary cells (CHO) membranes
T1 sequence (P08173 1-479): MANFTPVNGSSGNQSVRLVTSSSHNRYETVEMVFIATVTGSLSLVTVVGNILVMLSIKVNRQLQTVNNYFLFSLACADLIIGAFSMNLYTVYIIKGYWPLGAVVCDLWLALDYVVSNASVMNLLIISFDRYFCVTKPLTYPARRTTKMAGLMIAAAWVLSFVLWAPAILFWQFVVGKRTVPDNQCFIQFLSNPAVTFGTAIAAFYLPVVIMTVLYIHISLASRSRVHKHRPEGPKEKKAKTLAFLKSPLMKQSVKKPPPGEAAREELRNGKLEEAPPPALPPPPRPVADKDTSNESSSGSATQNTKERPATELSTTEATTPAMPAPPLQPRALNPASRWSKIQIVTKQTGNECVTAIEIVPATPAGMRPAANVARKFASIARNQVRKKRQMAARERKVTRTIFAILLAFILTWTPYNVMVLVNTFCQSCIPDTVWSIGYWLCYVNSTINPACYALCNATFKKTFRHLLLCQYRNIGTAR
Protocol: hM4 Receptor GTPγS Binding
Membranes produced from Chinese hamster ovary cells (CHO) expressing the cloned human M4 receptor (human Muscarinic receptor subtype 4, gene bank access NM_000741), are obtained from Perkin-Elmer (RBHM4M). The membranes are thawed at 37° C., passed 3 times through a 23-gauge blunt-end needle, diluted in the GTPγS binding buffer (50 mM Hepes, 20 mM NaOH, 100 mM NaCl, 1 mM EDTA, 5 mM MgCl2, pH 7.4, 100 μM DTT). The EC50, IC50 and Emax of the compounds of the invention are evaluated from 10-point dose-response curves (three fold concentration range) done in 60 μl in 384-well non-specific binding surface plate (Corning). Ten microliters from the dose-response curves plate (5× concentration) are transferred to another 384 well plate containing 25 μl of the following: 10 μg of hM4 membranes, 500 μg of Flashblue beads (Perkin-Elmer) and GDP 40 μM. An additional 15 μl containing 3.3× (60,000 dpm) of GTPγ^35S (0.4 nM final) are added to the wells resulting in a total well volume of 50 μl. Basal and maximal stimulated [^35S]GTPγS binding are determined in absence and presence of 30 μM final of acetylcholine agonist. The membranes/beads mix are pre-incubated for 15 minutes at room temperature with 40 μM GDP prior to distribution in plates (20 μM final). The reversal of acetylcholine-induced stimulation (10 μM final) of [^35S]GTPγS binding is used to assay the antagonist properties (IC50) of the compounds. The plates are incubated for 60 minutes at room temperature then centrifuged at 400 rpm for 5 minutes. The radioactivity (cpm) is counted in a Trilux (Perkin-Elmer).
Values of EC50, IC50 and Emax are obtained using sigmoidal fits of a non-linear curve-fitting program (XLfit version 4.2.2 Excel add-in version 4.2.2 build 18 math 1Q version 2.1.2 build 18) of percent stimulated [^35S]GTPγS binding vs. log(molar ligand). All pEC50 and plC50 values are reported as arithmetic means ±standard error of mean of ‘n’ independent experiments.

First: CC#CCOC(=O)N1CCC(C)(N2CCC(n3c(=O)[nH]c4ccc(C)cc43)CC2)C1 (single isomer, unassigned) [Example 20, but-2-ynyl 3-methyl-3-(4-(6-methyl-2-oxo-2,3-dihydro-1H-benzo[d]imidazol-1-yl)piperidin-1-yl)pyrrolidine-1-carboxylate]
Second: CC#CCOC(=O)N1CCC(C)(N2CCC(n3c(=O)[nH]c4cc(C)ccc43)CC2)C1 (single isomer, unassigned) [Example 21, but-2-ynyl 3-methyl-3-(4-(5-methyl-2-oxo-2,3-dihydro-1H-benzo[d]imidazol-1-yl)piperidin-1-yl)pyrrolidine-1-carboxylate]
The pEC50 of the first is 0.43 log units higher: 7.01 for the first, 6.58 for the second. The first is the more potent here.

First: CC#CCOC(=O)N1CCC(C)(N2CCC(n3c(=O)[nH]c4cc(F)ccc43)CC2)C1 (single isomer, unassigned) [Example 22, but-2-ynyl 3-(4-(5-fluoro-2-oxo-2,3-dihydro-1H-benzo[d]imidazol-1-yl)piperidin-1-yl)-3-methylpyrrolidine-1-carboxylate]
Second: C#CCOC(=O)N1CCC(C)(N2CCC(n3c(=O)[nH]c4cc(F)ccc43)CC2)C1 (stereo not shown) [Example 11, prop-2-ynyl 3-(4-(5-fluoro-2-oxo-2,3-dihydro-1H-benzo[d]imidazol-1-yl)piperidin-1-yl)-3-methylpyrrolidine-1-carboxylate]
The pEC50 of the first is 0.23 log units higher: 6.38 for the first, 6.15 for the second.

First: CCOC(=O)N1CCC(C)(N2CCC(N3C(=O)Cc4cc(F)c(C)cc43)CC2)C1 (single isomer, unassigned) [Example 82, ethyl 3-(4-(5-fluoro-6-methyl-2-oxoindolin-1-yl)piperidin-1-yl)-3-methylpyrrolidine-1-carboxylate]
Second: CCOC(=O)N1CCC(C)(N2CCC(N3C(=O)Cc4ccc(C)cc43)CC2)C1 (single isomer, unassigned) [Example 70, ethyl 3-methyl-3-(4-(6-methyl-2-oxoindolin-1-yl)piperidin-1-yl)pyrrolidine-1-carboxylate]
The pEC50 of the first is 0.28 log units higher: 6.03 for the first, 5.75 for the second. The first is the more potent here.

Compared with `CCOC(=O)N1CCC(C)(N2CCC(N3C(=O)Cc4ccccc43)CC2)C1` (single isomer, unassigned) [Example 73, ethyl 3-methyl-3-(4-(2-oxoindolin-1-yl)piperidin-1-yl)pyrrolidine-1-carboxylate], `CCOC(=O)N1CCC(C)(N2CCC(N3C(=O)Cc4cc(F)ccc43)CC2)C1` (single isomer, unassigned) [Example 79, ethyl 3-(4-(5-fluoro-2-oxoindolin-1-yl)piperidin-1-yl)-3-methylpyrrolidine-1-carboxylate] is higher in pEC50: < 4.05 for the first, 5.36 for the second.

`COC(=O)N1CCC(C)(N2CCC(N3C(=O)Cc4ccc(C)cc43)CC2)C1` (single isomer, unassigned) [Example 68, methyl 3-methyl-3-(4-(6-methyl-2-oxoindolin-1-yl)piperidin-1-yl)pyrrolidine-1-carboxylate] and `CCOC(=O)N1CCC(C)(N2CCC(N3C(=O)Cc4ccc(C)cc43)CC2)C1` (single isomer, unassigned) [Example 69, ethyl 3-methyl-3-(4-(6-methyl-2-oxoindolin-1-yl)piperidin-1-yl)pyrrolidine-1-carboxylate] are within 0.2 log units of each other in pEC50: 5.21 for the first, 5.05 for the second.

Going from `CCOC(=O)N1CCC(C)(N2CCC(n3c(=O)[nH]c4ccccc43)CC2)C1` (stereo not shown) [Example 1, ethyl 3-methyl-3-(4-(2-oxo-2,3-dihydro-1H-benzo[d]imidazol-1-yl)piperidin-1-yl)pyrrolidine-1-carboxylate] to `CC#CCOC(=O)N1CCC(C)(N2CCC(n3c(=O)[nH]c4ccccc43)CC2)C1` (single isomer, unassigned) [Example 33, but-2-ynyl 3-methyl-3-(4-(2-oxo-2,3-dihydro-1H-benzo[d]imidazol-1-yl)piperidin-1-yl)pyrrolidine-1-carboxylate], the pEC50 rises from 5.77 to 6.50 (0.73 log units). The second is the more potent here.

First: COC(=O)N1CCC(C)(N2CCC(N3C(=O)Cc4ccc(F)cc43)CC2)C1 (single isomer, unassigned) [Example 76, methyl 3-(4-(6-fluoro-2-oxoindolin-1-yl)piperidin-1-yl)-3-methylpyrrolidine-1-carboxylate]
Second: CCOC(=O)N1CCC(C)(N2CCC(N3C(=O)Cc4ccc(F)cc43)CC2)C1 (single isomer, unassigned) [Example 74, ethyl 3-(4-(6-fluoro-2-oxoindolin-1-yl)piperidin-1-yl)-3-methylpyrrolidine-1-carboxylate]
The pEC50 of the first is lower: < 4.05 for the first, 5.44 for the second.

First: CC1(N2CCC(n3c(=O)[nH]c4cc(F)ccc43)CC2)CCN(C(=O)OCCF)C1 (single isomer, unassigned) [Example 24, 2-fluoroethyl 3-(4-(5-fluoro-2-oxo-2,3-dihydro-1H-benzo[d]imidazol-1-yl)piperidin-1-yl)-3-methylpyrrolidine-1-carboxylate]
Second: CCOC(=O)N1CCC(C)(N2CCC(n3c(=O)[nH]c4cc(F)ccc43)CC2)C1 (single isomer, unassigned) [Example 7, ethyl 3-(4-(5-fluoro-2-oxo-2,3-dihydro-1H-benzo[d]imidazol-1-yl)piperidin-1-yl)-3-methylpyrrolidine-1-carboxylate]
The pEC50 of the first is higher: 5.29 for the first, < 4.61 for the second. The first is the more potent here.

`COC(=O)N1CCC(C)(N2CCC(n3c(=O)[nH]c4cc(C)ccc43)CC2)C1` (single isomer, unassigned) [Example 48, methyl 3-methyl-3-(4-(5-methyl-2-oxo-2,3-dihydro-1H-benzo[d]imidazol-1-yl)piperidin-1-yl)pyrrolidine-1-carboxylate] and `COC(=O)N1CCC(C)(N2CCC(n3c(=O)[nH]c4ccc(C)cc43)CC2)C1` (stereo not shown) [Example 17, methyl 3-methyl-3-(4-(6-methyl-2-oxo-2,3-dihydro-1H-benzo[d]imidazol-1-yl)piperidin-1-yl)pyrrolidine-1-carboxylate] are within 0.2 log units of each other in pEC50: 5.46 for the first, 5.50 for the second.

`CCOC(=O)N1CCC(C)(N2CCC(n3c(=O)[nH]c4ccc(F)cc43)CC2)C1` (single isomer, unassigned) [Example 50, ethyl 3-(4-(6-fluoro-2-oxo-2,3-dihydro-1H-benzo[d]imidazol-1-yl)piperidin-1-yl)-3-methylpyrrolidine-1-carboxylate] and `CCOC(=O)N1CCC(C)(N2CCC(n3c(=O)[nH]c4ccc(C)cc43)CC2)C1` (stereo not shown) [Example 16, ethyl 3-methyl-3-(4-(6-methyl-2-oxo-2,3-dihydro-1H-benzo[d]imidazol-1-yl)piperidin-1-yl)pyrrolidine-1-carboxylate] are within 0.2 log units of each other in pEC50: 5.70 for the first, 5.77 for the second.

`CCOC(=O)N1CCC(C)(N2CCC(N3C(=O)Cc4ccccc43)CC2)C1` (single isomer, unassigned) [Example 72, ethyl 3-methyl-3-(4-(2-oxoindolin-1-yl)piperidin-1-yl)pyrrolidine-1-carboxylate] and `CCOC(=O)N1CCC(C)(N2CCC(N3C(=O)Cc4ccc(F)cc43)CC2)C1` (single isomer, unassigned) [Example 75, ethyl 3-(4-(6-fluoro-2-oxoindolin-1-yl)piperidin-1-yl)-3-methylpyrrolidine-1-carboxylate] cannot be ordered by pEC50: < 4.05 for the first, < 4.72 for the second.

Going from `C#CCOC(=O)N1CCC(C)(N2CCC(n3c(=O)[nH]c4ccc(C)cc43)CC2)C1` (single isomer, unassigned) [Example 41, prop-2-ynyl 3-methyl-3-(4-(6-methyl-2-oxo-2,3-dihydro-1H-benzo[d]imidazol-1-yl)piperidin-1-yl)pyrrolidine-1-carboxylate] to `CCOC(=O)N1CCC(C)(N2CCC(n3c(=O)[nH]c4cc(C)ccc43)CC2)C1` (single isomer, unassigned) [Example 12, ethyl 3-methyl-3-(4-(5-methyl-2-oxo-2,3-dihydro-1H-benzo[d]imidazol-1-yl)piperidin-1-yl)pyrrolidine-1-carboxylate], the pEC50 rises from 5.06 to 5.70 (0.64 log units). The second is the more potent here.

same assay, conditions: hM4 EC50 (nM), CHO cell membranes expressing hM4; [35S]GTPγS binding

`COC(=O)N1CCC(C)(N2CCC(N3C(=O)Cc4cc(F)c(C)cc43)CC2)C1` (single isomer, unassigned) [Example 83, methyl 3-(4-(5-fluoro-6-methyl-2-oxoindolin-1-yl)piperidin-1-yl)-3-methylpyrrolidine-1-carboxylate] gave an EC50 of 11300 nM.
